Results from PubChem BioAssay AID624485 (The Scripps Research Institute Molecular Screening Center, 2012).
Values joined by “and” are separate entries in the source; they are usually repeats but may differ in a detail not shown here. Identical values can stand only once. Active and inactive are the calls of the source.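 Rule for the calls: active = over 50% inhibition of probe labelling of the prolyl oligopeptidase-like enzyme in cells; inactive = inhibition at or below 50%.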

Biological target: Prolyl endopeptidase-like (Mus musculus) (UniProt Q8C167)
Assay: PREPL inhibition in intact cells, cell-based, click chemistry ABPP, gel, fluorescence (AID 624485)
Settings: Neuro-2A transfected mPrepl, in situ gel CC-ABPP; at 50 µM; stronger effect = higher value

Sequence of Prolyl endopeptidase-like (Mus musculus) (Q8C167 whole entry, looked up): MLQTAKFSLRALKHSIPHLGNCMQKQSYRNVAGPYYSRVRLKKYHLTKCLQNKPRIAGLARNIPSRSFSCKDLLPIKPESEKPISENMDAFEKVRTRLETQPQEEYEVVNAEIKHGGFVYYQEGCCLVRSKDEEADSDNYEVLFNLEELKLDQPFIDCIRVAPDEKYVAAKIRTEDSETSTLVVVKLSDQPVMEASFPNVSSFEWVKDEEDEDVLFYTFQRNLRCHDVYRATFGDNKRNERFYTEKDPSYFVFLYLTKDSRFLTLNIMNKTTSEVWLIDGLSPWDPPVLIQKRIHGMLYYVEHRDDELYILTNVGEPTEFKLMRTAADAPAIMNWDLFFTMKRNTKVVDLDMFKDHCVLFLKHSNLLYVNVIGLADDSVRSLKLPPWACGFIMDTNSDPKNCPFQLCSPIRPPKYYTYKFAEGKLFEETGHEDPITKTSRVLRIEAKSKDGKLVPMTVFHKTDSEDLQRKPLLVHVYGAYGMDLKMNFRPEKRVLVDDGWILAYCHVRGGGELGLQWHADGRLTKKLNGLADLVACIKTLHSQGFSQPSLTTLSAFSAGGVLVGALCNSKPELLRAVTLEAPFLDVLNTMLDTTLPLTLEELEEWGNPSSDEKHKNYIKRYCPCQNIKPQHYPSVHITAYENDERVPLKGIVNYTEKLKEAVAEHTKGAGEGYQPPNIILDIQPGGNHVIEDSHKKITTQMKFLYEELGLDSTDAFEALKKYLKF

SMILES	inhibition
O=C(Nc1ccc2c(c1)OCCO2)c1cccc2nc3ccccc3nc12	-26% (inactive)
CCOc1ccc(CCNC(=O)c2ccc3c(=O)[nH]c4c(C(=O)NC(C)C)sc(=S)n4c3c2)cc1	-29% (inactive) and 0% (inactive)
CC(C)Cc1[nH]c(=O)c(C#N)c2c1CCC2	90%
N#Cc1c2c(c(-c3ccccc3)[nH]c1=O)CCCC2	60%
